Experimental data taken from patent US12686689B2, “HPK1 inhibitor, preparation method therefor and use thereof” (WIGEN BIOMEDICINE TECHNOLOGY (SHANGHAI) CO., LTD., priority 2020, dated 2026).

What was measured:
[1] = biological target: T1, hERG potassium channel (Homo sapiens, UniProt Q12809); test: Inhibitory effect against hERG channel activity (manual patch clamp, HEK293 cells stably expressing hERG); format: cell-based; settings: HEK293 cell line stably expressing hERG
T1 construct: expressed in transfected cells; host or cells: HEK293
T1 sequence (Q12809 whole entry): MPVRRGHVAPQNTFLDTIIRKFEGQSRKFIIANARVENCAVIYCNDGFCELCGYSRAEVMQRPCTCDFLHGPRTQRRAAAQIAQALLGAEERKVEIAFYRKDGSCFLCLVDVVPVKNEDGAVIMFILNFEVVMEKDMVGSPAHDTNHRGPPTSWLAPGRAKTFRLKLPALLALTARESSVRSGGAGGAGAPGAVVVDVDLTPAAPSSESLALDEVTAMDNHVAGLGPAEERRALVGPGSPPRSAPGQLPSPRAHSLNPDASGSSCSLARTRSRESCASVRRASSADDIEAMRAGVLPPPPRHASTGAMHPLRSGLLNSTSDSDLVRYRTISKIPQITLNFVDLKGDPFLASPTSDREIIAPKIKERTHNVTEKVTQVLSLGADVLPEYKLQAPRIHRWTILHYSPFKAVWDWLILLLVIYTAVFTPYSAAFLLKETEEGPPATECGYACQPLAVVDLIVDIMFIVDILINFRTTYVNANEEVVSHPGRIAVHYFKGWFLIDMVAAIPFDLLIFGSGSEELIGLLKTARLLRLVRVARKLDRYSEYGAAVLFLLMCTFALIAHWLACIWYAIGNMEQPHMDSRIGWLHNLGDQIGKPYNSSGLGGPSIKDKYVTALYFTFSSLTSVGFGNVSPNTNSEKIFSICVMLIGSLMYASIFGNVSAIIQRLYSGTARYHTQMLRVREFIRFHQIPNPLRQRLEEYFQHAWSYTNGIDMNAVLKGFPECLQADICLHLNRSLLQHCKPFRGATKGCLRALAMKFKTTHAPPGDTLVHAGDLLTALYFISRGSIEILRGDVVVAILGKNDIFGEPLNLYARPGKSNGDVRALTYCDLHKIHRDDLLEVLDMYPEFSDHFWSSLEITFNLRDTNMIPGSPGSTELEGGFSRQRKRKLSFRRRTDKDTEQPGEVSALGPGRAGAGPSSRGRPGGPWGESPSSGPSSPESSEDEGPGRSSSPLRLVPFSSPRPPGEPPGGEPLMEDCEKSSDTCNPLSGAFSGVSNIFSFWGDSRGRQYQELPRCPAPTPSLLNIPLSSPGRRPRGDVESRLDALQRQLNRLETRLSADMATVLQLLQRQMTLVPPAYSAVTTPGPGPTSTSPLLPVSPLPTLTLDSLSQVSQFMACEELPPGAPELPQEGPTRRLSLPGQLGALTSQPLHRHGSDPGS
Protocol: Example 131: Assay of Inhibitory Effect of Compound Against hERG Channel Activity
The HEK293 cell line stably expressed by the hERG potassium channel was adopted for detection using manual patch clamp. Firstly, the HEK293 cell line stably expressed by the hERG potassium channel was separated and laid on a cover glass before the patch clamp detection test, and the test detection was carried out after culture for 18 h. Then a capillary glass tube was drawn into a recording electrode, and the recording electrode was contacted onto the cells under an inverted microscope to form a whole-cell recording mode. After necessary compensation and recording of the membrane capacitance and series resistance, current recording was performed according to the set current stimulation protocol. After the hERG current stabilized, administration was started and the current detected in compound-free extracellular fluid for each cell served as its own control group, and multiple cells were repeatedly tested independently. The current acted for each drug concentration and the current of the blank control were standardized, then the inhibition rate corresponding to each drug concentration was calculated, and finally the half-inhibition concentration IC50 value of each compound was calculated.

[2] = biological target: HPK1 (Homo sapiens, UniProt Q92918); test: Inhibitory effect against enzyme activity of HPK1 (lantha Screen, PKC substrate); format: biochemical; settings: class symbols defined as IC50 ranges, read-out: Inhibition rate (%)
Chain of HPK1 (Q92918 whole entry): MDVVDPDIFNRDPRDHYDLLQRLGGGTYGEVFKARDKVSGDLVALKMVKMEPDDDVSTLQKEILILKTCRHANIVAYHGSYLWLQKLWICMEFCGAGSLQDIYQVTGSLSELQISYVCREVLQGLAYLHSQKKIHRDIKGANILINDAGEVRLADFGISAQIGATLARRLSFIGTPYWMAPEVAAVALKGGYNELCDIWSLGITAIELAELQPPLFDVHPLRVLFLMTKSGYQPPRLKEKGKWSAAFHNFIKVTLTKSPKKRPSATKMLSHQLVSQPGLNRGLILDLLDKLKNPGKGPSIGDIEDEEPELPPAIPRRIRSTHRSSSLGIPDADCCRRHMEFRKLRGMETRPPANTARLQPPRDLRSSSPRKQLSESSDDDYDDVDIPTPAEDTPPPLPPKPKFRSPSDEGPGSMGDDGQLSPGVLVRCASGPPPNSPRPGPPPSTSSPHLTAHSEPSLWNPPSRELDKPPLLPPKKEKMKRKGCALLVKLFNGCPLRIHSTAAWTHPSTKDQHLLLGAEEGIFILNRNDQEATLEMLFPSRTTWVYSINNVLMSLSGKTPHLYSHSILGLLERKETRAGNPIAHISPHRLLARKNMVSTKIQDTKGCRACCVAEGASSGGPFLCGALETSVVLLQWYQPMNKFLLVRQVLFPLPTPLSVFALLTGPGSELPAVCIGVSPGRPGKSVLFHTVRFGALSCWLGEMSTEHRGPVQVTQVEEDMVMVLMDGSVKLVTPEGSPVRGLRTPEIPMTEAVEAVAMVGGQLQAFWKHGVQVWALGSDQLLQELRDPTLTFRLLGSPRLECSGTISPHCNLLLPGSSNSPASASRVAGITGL
Protocol: Example 130: Assay of Inhibitory Effect of Compound Against Enzyme Activity of HPK1
The inhibitory effect of the compound against the enzyme activity of HPK1 was determined by using a lantha Screen method with PKC as a substrate. The process comprises the following specific steps: the HPK1 protein was incubated with the serially-diluted compound at 28° C. for 10 min followed by addition of fluoroescein-labeled PKC substrate and ATP to react for 90 min. After termination of the reaction, a Terbium-labeled antibody against phosphorylated PKC was added and incubated for 60 min. The energy transfer of Teribium and fluoroscein was monitored by detecting luminescence at 520 nm and 450 nm to quantify PKC as the level of phosphorylation of […]. Inhibition % and IC50 of the compound were calculated compared to the control group.

SMILES | IC50 [2] [µM] | IC50 [1] [µM]
COc1ccc(F)c(F)c1-c1cc2c(-c3ccc4c(c3)OCC3CN(C)CCN43)n[nH]c2cn1 (stereo not shown) [Compound 73] | 0.01 to 0.1 | 41.2
CN1CCN2c3ccc(-c4n[nH]c5cc(C#N)c(-c6c(F)cc(C(=O)N7CC(N(C)C)C7)cc6F)cc45)cc3OCC2C1 (stereo not shown) [Compound 35] | ≤ 0.01 | 31.8
CNCc1cc(F)c(-c2cc3c(-c4ccc5c(c4)OCC4CN(C)CCN54)n[nH]c3cc2C#N)c(F)c1 (stereo not shown) [Compound 18] | ≤ 0.01 | 11.8
COc1cccc(F)c1-c1cc2c(-c3ccc4c(c3)OCC3CN(C)CCN43)n[nH]c2cc1C#N (stereo not shown) [Compound 6] | ≤ 0.01 | 17.8
CN1CCN2c3ccc(-c4n[nH]c5cc(C#N)c(-c6ccn7ncnc7c6)cc45)cc3OCC2C1 (stereo not shown) [Compound 60] | ≤ 0.01 | –
CN1CCN2c3ccc(-c4n[nH]c5cc(C#N)c(-c6cccn7cnnc67)cc45)cc3OCC2C1 (stereo not shown) [Compound 56] | ≤ 0.01 | –

More lines, main results first:

IC50 [2] [µM] | SMILES | IC50 [1] [µM]
≤ 0.01 | COc1ccc(F)c(F)c1-c1cc2c(-c3ccc4c(c3)OCC3CN(C)CCN43)n[nH]c2cc1C#N (stereo not shown) [Compound 16] | 23.6
≤ 0.01 | CN1CCN2c3ccc(-c4cnc5[nH]cc(-c6ccc(C(=O)N7CC(N(C)C)C7)cc6)c5n4)cc3OCC2C1 (stereo not shown) [Compound 112] | 35.6
0.01 to 0.1 | CN1CCN2c3ccc(-c4n[nH]c5cnc(-c6cccc(F)c6F)cc45)cc3OCC2C1 (stereo not shown) [Compound 67] | 51.2
≤ 0.01 | CNCc1cc(F)c(-c2cc3c(-c4ccc5c(c4)OCC4CN(C)CCN54)n[nH]c3cn2)c(F)c1 (stereo not shown) [Compound 68] | –
≤ 0.01 | CN1CCN2c3ccc(-c4n[nH]c5cc(C#N)c(-c6cccc(P(C)(C)=O)c6F)cc45)cc3OCC2C1 (stereo not shown) [Compound 12] | –
≤ 0.01 | CN1CCN2c3ccc(-c4n[nH]c5cc(C#N)c(-c6cnc7c(c6)ncn7C)cc45)cc3OCC2C1 (stereo not shown) [Compound 52] | –
≤ 0.01 | Cc1ccncc1-c1cc2c(-c3ccc4c(c3)OCC3CN(C)CCN43)n[nH]c2cc1C#N (stereo not shown) [Compound 43] | 17.4
≤ 0.01 | CN1CCN2c3ccc(-c4n[nH]c5cc(C#N)c(-c6ccn7cnnc7c6)cc45)cc3OCC2C1 (stereo not shown) [Compound 61] | –
